The subject of assay [1] is immune cells in lungs and spleen of LPS-challenged mice. The assay is described as follows: LPS-induced inflammation model, IHC staining of immune cells in lungs and spleen. The class given is in vivo, mouse. To be noted: lungs and spleen sections. The method, then: (§1) C57BL/6J mice (6-8 weeks) were purchased from Charles River Laboratories (USA) and acclimatized for at least 1 week before use. All mice were housed in a pathogen-free facility. The mice received LPS for 24 hours. Following 24 hours, mice were treated either with lidocaine alone or methylnaltrexone alone or a combination of both, as shown in Table 1.
At the conclusion of the study, the blood and tissue samples were collected for further study. The serum was used to determine pro-inflammatory cytokines using the LEGENDplex™ mouse inflammation panel (BioLegend, USA) kit followed by flow cytometry. The lungs and spleen tissue samples were used for hematoxylin and eosin (H&E) staining and immunohistochemical analyses for immune cells, including macrophages and natural killer (NK) cells, B cells, T cells, and its subsets. For histopathology and immunohistochemistry (IHC), tissue samples were prepared by cutting 4-µm sections from the paraffin blocks. IHC staining was performed by methods described earlier. The images were captured using bright field microscopy (Nikon Microscope). Two independent investigators evaluated the H&E and all immunohistochemical staining. For slide scoring, each investigator assessed the tissues and gave a score of 0 (no expression) to 4+ (strong uniform expression) as described previously. […]

Assay [2] concerns p-Src / total Src. As to the kind of experiment: Total Src and p-Src expression in AsPc 1 human pancreatic cancer cell line (Western blot). In kind it is cell-based. The following applies: 10 µM lidocaine, 100 nM methylnaltrexone or both, one hour. The method, then:
Example 10 evaluated the effect of 10 µM lidocaine (L), 100 nM methylnaltrexone (M) and the combination of 10 µM lidocaine + 100 nM methylnaltrexone (L+M) for 1 hour on total Src and p-Src expression in a human pancreatic cancer cell line (AsPc 1).
(§2) • P-Src-Tyr416 (GeneTex # GTX81151) 1:2000 in 5% bovine serum albumin, at room temperature, 4 hours • Total Src (CST # 2108S) 1:3000 in 5% bovine serum albumin, at room temperature, 4 hours
For orientation: A western blot detects proteins with antibodies after separation by electrophoresis.

For assay [3], the system named is p-Src / total Src. The assay is described as follows: Total Src and p-Src expression in MiaPaCa 2 human pancreatic cancer cell line (Western blot). To be noted: 10 µM lidocaine, 100 nM methylnaltrexone or both, one hour. The class given is cell-based. The method, then: as §2
Example 11 evaluated the effect of 10 µM lidocaine (L), 100 nM methylnaltrexone (M) and the combination of 10 µM lidocaine + 100 nM methylnaltrexone (L+M) for 1 hour on total Src and p-Src expression in a human pancreatic cancer cell line (MiaPaCa 2). Experimental conditions were identical to Example 10.

Assay [4] deals with p-Src / total Src. The assay is described as follows: Total Src and p-Src expression in Panc1 human pancreatic cancer cell line (Western blot). The class given is cell-based. To be noted: 10 µM lidocaine, 100 nM methylnaltrexone or both, time points up to 6 hours, fresh media. The method, then: as §2
Example 12 evaluated the effect of 10 µM lidocaine (L), 100 nM methylnaltrexone (M) and the combination of 10 µM lidocaine + 100 nM methylnaltrexone (L+M) on total Src and p-Src expression in a human pancreatic cancer cell line (Panc1) at multiple time points up to 6 hours, in fresh media. Experimental conditions were identical to Example 10.

The subject of assay [5] is LPS-challenged C57BL/6 mice. The assay is described as follows: LPS-induced inflammation model, H&E histopathology of lungs and spleen. In kind it is in vivo, mouse. As for the experimental part:
as §1
At the conclusion of the study, the blood and tissue samples were collected for further study. The serum was used to determine pro-inflammatory cytokines using the LEGENDplex™ mouse inflammation panel (BioLegend, USA) kit followed by flow cytometry. The lungs and spleen tissue samples were used for hematoxylin and eosin (H&E) staining and immunohistochemical analyses for immune cells, including macrophages and natural killer (NK) cells, B cells, T cells, and its subsets. For histopathology and immunohistochemistry (IHC), tissue samples were prepared by cutting 4-µm sections from the paraffin blocks. IHC staining was performed by methods described earlier. The images were captured using bright field microscopy (Nikon Microscope). Two independent investigators evaluated the H&E and all immunohistochemical staining. For slide scoring, each investigator assessed the tissues and gave a score of 0 (no expression) to 4+ (strong uniform expression) as described previously. The data were expressed either as the mean ± SD or mean ± SEM by using Graph Pad Prism software.

In the case of `CCN(CC)CC(=O)Nc1c(C)cccc1C` [lidocaine, 2-diethylaminoaceto-2′,6′-xylidide], the “F4/80 positive area (macrophages)” value in assay [1] was “partially decreased”. Moreover, in the assay with p-Src / total Src [2], the p-Src activity result is given as “attenuated p-Src activity”. Moreover, the p-Src result in the assay with p-Src / total Src [3] is on record as “attenuated p-Src”; with p-Src / total Src [4] it was “inconsistent effects on decreases in p-Src”. Further, the “H&E staining, histopathology of lungs” value in assay [5] (LPS challenged mice, lungs) is “perivascular edema and accumulation of mixed cell infiltration within blood, and lymphatic vessels”. Also, in assay [5] (LPS challenged mice, spleen), the “histological examination of spleen” value is “increased number of erythrocytes in the red pulp, along with mild edema”. In assay [5] (mouse model, drug alone), the “LPS-induced inflammation (overall conclusion)” value is on record as “partially mitigate”.
